Common to all, as to test: MIC, suppression of radial hyphal growth on malt extract nutrient agar
What all share (type): cell-based

The subject of experiment [1] is Stachybotrys chartarum. Particulars: Example 3 synergism test, 26° C., read-out: MIC against Stachybotrys chartarum (ppm). The procedure: (§1) For this purpose, pieces of mycelium were punched out of a colony of the appropriate mold and incubated at 26° C. on a nutrient agar containing malt extract. Here, hyphal growth with and without active ingredient was compared.
(§2) Pieces of mycelium were punched out of a colony of the appropriate mold and incubated at 26° C. on a nutrient agar containing malt extract. Here, hyphal growth with and without active ingredient was compared.
(§3) The synergism was determined according to the method described by Kull et al. (F. C. Kull, P. C. Eismann, H. D. Sylvestrowicz, R. L. Mayer, Applied Microbiology 1961, 9, 538-541). The following relationships apply:
(§4) [formula] • SI=1 means additivity • SI>1 means antagonism • SI<1 means synergism • Qa=concentration of substance A which is the MIC • Qb=concentration of substance B which is the MIC • QA=concentration of substance A in the concentration of A/B at which microbial growth is suppressed • Qb=concentration of substance B in the concentration of A/B at which microbial growth is suppressed 3.1 Combinations of AZO and IPBC Against the Molds Aspergillus niger and Aspergillus versicolor

In experiment [2] the test system is Trichoderma virens. Particulars: Example 3 synergism test, 26° C., read-out: MIC against Trichoderma virens (ppm). The procedure: as §1, §2, §3, §4
Experiment [3] concerns Cladosporium cladosporioides. Conditions: Example 3 synergism test, 26° C., read-out: MIC against Cladosporium cladosporioides (ppm). The protocol:
as §1, §2, §3, §4

In experiment [4] the test system is Aspergillus niger. Conditions: Example 3 synergism test, 26° C., read-out: MIC (ppm) Aspergillus niger. The procedure: as §2, §3, §4
Experiment [5] has as its system Aspergillus versicolor. Conditions: Example 3 synergism test, 26° C., read-out: MIC (ppm) Aspergillus versicolor. The procedure:
as §2, §3, §4

SMILES strings stand for the structures.

For `CO/C=C(/C(=O)OC)c1ccccc1Oc1cc(Oc2ccccc2C#N)ncn1` [AZO, methyl (E)-2-{2-[6-(2-cyanophenoxy)pyrimidin-4-yloxy]phenyl}-3-methoxyacrylate], the MIC in experiment [1] turned out to be 100 µg/mL; in experiment [2], 1000 µg/mL; in experiment [3], 5 µg/mL; in experiment [4], 5000 µg/mL; in experiment [5], 100 µg/mL.

(Values after patent US20240306640A1, “BIOCIDAL MIXTURES” (LANXESS Deutschland GmbH, priority 2021, published 2024).)
